# Patent publication US11572590B2, “Methods for evaluating tumor cell spheroids using 3D microfluidic cell culture device” (Dana-Farber Cancer Institute, Inc., priority 2017, dated 2023)
# Like-named read-outs stand apart in the source and are kept apart here.
# Legend:
# Experiment in all cases: SelectScreen Kinase Profiling, single point inhibition and IC50 for off-target kinases
# Assay type in all cases: biochemical
# off-target kinases [1] = target: off-target kinases (Homo sapiens, UniProt Q9UPE1); conditions: STK23 (MSSK1), ZLYTE, ATP Km app
# Chain of off-target kinases (Homo sapiens, UniProt Q9UPE1) (Q9UPE1 whole entry): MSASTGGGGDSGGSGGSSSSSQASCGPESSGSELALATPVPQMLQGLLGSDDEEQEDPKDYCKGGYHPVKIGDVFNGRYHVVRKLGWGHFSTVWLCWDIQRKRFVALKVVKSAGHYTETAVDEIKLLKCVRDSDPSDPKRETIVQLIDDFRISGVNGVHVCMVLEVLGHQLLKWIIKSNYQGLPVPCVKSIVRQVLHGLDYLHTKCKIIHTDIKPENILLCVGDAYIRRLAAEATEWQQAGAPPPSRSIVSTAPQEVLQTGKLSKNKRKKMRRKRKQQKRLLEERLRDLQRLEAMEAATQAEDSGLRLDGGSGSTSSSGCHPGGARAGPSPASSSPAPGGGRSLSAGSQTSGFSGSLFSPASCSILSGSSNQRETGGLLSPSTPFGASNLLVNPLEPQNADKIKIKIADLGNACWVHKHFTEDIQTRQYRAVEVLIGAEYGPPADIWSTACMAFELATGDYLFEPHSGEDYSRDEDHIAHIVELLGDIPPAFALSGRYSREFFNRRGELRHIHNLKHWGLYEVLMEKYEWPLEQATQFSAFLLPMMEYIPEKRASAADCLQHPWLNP
# off-target kinases [2] = target: T1, off-target kinases (Homo sapiens, UniProt Q96PY6); conditions: NEK1, ATP Km app, ZLYTE
# T1 sequence (Q96PY6 1-1258): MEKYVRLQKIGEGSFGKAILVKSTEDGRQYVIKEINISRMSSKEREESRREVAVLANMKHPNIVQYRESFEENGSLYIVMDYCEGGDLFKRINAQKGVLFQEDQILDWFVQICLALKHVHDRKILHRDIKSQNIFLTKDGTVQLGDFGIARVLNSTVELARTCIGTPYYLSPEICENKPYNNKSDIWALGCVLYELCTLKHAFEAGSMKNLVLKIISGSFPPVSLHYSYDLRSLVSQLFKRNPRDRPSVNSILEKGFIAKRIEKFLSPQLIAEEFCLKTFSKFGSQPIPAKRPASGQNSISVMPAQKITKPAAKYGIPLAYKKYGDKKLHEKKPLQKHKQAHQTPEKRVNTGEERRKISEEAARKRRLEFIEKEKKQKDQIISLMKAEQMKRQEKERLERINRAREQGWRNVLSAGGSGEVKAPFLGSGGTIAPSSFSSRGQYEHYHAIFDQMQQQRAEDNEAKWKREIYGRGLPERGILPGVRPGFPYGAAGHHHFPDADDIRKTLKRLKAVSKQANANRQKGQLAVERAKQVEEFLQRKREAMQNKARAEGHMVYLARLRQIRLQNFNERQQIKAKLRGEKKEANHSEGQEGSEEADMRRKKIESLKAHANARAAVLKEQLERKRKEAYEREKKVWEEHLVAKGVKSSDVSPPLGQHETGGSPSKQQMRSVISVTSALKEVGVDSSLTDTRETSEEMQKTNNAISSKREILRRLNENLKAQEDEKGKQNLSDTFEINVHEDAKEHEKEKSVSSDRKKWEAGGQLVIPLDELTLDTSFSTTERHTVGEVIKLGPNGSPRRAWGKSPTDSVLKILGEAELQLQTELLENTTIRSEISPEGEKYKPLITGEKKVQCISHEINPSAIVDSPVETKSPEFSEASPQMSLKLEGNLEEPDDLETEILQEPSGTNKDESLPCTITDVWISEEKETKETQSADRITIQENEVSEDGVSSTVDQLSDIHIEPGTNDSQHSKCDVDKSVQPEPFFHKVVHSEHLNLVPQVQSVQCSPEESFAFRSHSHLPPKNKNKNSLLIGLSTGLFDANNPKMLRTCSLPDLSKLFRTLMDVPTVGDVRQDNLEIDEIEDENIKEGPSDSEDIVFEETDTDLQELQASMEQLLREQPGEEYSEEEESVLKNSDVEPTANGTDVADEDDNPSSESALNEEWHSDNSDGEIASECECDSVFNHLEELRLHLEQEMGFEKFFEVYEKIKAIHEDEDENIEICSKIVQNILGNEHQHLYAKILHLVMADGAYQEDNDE
# off-target kinases [3] = target: off-target kinases (Homo sapiens, UniProt P54646)
# Chain of off-target kinases (Homo sapiens, UniProt P54646) (P54646 whole entry): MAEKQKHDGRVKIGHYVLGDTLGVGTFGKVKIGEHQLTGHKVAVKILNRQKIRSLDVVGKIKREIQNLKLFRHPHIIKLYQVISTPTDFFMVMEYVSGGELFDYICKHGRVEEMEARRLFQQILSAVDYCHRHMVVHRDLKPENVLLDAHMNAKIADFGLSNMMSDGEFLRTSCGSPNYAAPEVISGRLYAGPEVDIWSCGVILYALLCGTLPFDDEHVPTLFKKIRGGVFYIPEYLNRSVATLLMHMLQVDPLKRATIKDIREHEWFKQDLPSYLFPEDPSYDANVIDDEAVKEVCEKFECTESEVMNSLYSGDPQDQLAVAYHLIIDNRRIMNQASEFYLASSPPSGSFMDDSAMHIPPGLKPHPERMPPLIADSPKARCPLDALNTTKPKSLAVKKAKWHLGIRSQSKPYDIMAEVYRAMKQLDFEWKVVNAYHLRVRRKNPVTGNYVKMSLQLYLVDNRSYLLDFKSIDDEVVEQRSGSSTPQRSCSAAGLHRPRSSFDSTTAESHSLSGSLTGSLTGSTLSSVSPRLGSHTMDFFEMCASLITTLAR
# off-target kinases [4] = target: off-target kinases (Homo sapiens, UniProt Q8NEB9); conditions: PIK3C3 (hVPS34); Cmpd1 1000 μM; ATP Km app; Adapta
# Chain of off-target kinases (Homo sapiens, UniProt Q8NEB9) (Q8NEB9 whole entry): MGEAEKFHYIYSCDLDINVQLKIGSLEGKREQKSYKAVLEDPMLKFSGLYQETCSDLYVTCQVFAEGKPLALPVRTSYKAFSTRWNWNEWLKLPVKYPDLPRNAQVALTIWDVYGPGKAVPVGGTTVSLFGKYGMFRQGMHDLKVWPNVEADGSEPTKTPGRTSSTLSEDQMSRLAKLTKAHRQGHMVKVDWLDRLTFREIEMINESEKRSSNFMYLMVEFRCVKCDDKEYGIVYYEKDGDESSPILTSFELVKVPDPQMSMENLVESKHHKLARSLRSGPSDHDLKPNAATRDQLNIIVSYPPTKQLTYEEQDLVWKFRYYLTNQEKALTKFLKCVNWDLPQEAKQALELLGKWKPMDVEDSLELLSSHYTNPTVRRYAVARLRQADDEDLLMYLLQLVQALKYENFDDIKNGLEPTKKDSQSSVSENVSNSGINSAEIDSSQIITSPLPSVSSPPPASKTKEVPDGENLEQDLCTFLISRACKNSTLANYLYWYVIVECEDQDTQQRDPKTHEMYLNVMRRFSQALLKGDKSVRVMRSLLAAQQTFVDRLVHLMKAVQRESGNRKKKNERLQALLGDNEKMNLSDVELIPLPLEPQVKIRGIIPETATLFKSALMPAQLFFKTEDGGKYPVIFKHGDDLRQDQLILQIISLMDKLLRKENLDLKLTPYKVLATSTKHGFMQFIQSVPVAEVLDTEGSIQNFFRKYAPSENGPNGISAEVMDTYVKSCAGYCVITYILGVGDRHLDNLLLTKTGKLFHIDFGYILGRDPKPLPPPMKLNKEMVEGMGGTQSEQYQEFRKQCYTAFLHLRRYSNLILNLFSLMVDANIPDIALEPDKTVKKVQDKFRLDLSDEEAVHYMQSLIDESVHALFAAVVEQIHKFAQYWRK
# off-target kinases [5] = target: off-target kinases (Homo sapiens, UniProt Q99558); conditions: MAP3K14 (NIK), LanthaScreen Binding
# Chain of off-target kinases (Homo sapiens, UniProt Q99558) (Q99558 whole entry): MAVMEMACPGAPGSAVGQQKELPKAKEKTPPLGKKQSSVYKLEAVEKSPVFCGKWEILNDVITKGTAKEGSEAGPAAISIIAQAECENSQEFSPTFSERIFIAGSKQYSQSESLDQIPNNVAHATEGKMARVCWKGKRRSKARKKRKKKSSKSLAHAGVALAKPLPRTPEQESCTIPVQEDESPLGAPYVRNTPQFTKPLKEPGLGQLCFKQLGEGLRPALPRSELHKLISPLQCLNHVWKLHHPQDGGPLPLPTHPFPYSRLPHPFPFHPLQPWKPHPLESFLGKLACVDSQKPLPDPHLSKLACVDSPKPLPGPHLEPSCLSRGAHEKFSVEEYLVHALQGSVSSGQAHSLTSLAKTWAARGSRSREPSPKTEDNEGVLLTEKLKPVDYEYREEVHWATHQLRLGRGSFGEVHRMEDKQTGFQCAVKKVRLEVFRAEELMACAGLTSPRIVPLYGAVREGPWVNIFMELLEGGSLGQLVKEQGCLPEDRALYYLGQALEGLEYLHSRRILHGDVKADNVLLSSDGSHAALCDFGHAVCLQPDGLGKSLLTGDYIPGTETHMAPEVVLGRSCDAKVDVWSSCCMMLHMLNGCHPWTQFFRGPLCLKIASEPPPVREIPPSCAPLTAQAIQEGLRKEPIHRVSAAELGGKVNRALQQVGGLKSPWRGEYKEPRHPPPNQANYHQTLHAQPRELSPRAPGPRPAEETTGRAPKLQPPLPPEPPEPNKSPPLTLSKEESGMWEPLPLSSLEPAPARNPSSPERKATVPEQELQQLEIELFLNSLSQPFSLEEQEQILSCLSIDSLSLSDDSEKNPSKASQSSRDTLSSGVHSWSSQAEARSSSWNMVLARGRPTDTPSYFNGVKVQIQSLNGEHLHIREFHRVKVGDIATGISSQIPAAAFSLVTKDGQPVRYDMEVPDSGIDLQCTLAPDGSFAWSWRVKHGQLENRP
# off-target kinases [6] = target: off-target kinases (Homo sapiens, UniProt Q96RR4); conditions: CAMKK2 (CaMKK beta), LanthaScreen Binding
# Chain of off-target kinases (Homo sapiens, UniProt Q96RR4) (Q96RR4 whole entry): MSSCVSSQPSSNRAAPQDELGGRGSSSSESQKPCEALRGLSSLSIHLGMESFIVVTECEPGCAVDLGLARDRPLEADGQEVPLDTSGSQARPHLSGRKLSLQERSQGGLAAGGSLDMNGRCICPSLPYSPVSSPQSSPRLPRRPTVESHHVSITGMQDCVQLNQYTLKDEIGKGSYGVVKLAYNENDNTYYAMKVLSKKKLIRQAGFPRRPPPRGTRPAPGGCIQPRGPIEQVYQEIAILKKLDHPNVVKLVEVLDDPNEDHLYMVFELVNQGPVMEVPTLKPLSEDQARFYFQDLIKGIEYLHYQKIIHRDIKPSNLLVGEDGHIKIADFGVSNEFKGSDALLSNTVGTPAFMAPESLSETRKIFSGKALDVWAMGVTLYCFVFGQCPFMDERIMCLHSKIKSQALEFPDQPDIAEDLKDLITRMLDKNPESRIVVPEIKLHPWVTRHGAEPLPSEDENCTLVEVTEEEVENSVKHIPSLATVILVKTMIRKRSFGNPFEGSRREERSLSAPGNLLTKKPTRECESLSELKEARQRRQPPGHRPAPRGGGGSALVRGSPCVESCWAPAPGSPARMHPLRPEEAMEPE
smiles,measurement,setting,value
"N#Cc1cc(-c2ncnc(Nc3ccc(N4CCN(C5COC5)CC4)cc3)n2)ccc1OC1CCOCC1 [Compound 1, 5-(4-((4-(4-(oxetan-3-yl)piperazin-1-yl)phenyl)amino)-1,3,5-triazin-2-yl)-2-((tetrahydro-2H-pyran-4-yl)oxy)benzonitrile]",inhibition,off-target kinases [1]; read-out: % Inhibition 1,2%
same,inhibition,off-target kinases [1]; read-out: % Inhibition 2,1%
same,inhibition,off-target kinases [1]; read-out: % Inhibition Avg,2%
same,inhibition,off-target kinases [2]; read-out: % Inhibition 1,68%
same,inhibition,off-target kinases [2]; read-out: % Inhibition 2,70%
same,inhibition,off-target kinases [2]; read-out: % Inhibition Avg,69%
same,inhibition,"off-target kinases [3]; AMPK (A2/B2/G1), LanthaScreen Binding, read-out: % Inhibition 1",35%
same,inhibition,"off-target kinases [3]; AMPK (A2/B2/G1), LanthaScreen Binding, read-out: % Inhibition 2",35%
same,inhibition,"off-target kinases [3]; AMPK (A2/B2/G1), LanthaScreen Binding, read-out: % Inhibition Avg",35%
same,inhibition,"off-target kinases [3]; AMPK (A2/B2/G2), LanthaScreen Binding, read-out: % Inhibition 1",44%
same,inhibition,"off-target kinases [3]; AMPK (A2/B2/G2), LanthaScreen Binding, read-out: % Inhibition 2",45%
same,inhibition,"off-target kinases [3]; AMPK (A2/B2/G2), LanthaScreen Binding, read-out: % Inhibition Avg",45%
same,inhibition,"off-target kinases [3]; AMPK A2/B1/G1, ATP Km app, ZLYTE, read-out: % Inhibition 1",47%
same,inhibition,"off-target kinases [3]; AMPK A2/B1/G1, ATP Km app, ZLYTE, read-out: % Inhibition 2",46%
same,inhibition,"off-target kinases [3]; AMPK A2/B1/G1, ATP Km app, ZLYTE, read-out: % Inhibition Avg",46%
same,% Inhibition 1,off-target kinases [4],−5%
same,% Inhibition 2,off-target kinases [4],−9%
same,% Inhibition Avg,off-target kinases [4],−7%
same,inhibition,off-target kinases [5]; read-out: % Inhibition 1,20%
same,inhibition,off-target kinases [5]; read-out: % Inhibition 2,24%
same,inhibition,off-target kinases [5]; read-out: % Inhibition Avg,22%
same,inhibition,off-target kinases [6]; read-out: % Inhibition 1,7%
same,inhibition,off-target kinases [6]; read-out: % Inhibition 2,9%
same,inhibition,off-target kinases [6]; read-out: % Inhibition Avg,8%
